This passage reports Activity results from ChEMBL document CHEMBL3600336, “Design and synthesis of silicon-containing fatty acid amide derivatives as novel peroxisome proliferator-activated receptor (PPAR) agonists” (Bioorg Med Chem Lett, 2015).

Activity calls are given as the source filed them. The calls are words filed in the database; no cut-off is given here.

Holding throughout (format): cell-based
For data set [1], the target named is T1, Peroxisome proliferator-activated receptor alpha (Homo sapiens) (UniProt Q07869).
T1 sequence (whole entry): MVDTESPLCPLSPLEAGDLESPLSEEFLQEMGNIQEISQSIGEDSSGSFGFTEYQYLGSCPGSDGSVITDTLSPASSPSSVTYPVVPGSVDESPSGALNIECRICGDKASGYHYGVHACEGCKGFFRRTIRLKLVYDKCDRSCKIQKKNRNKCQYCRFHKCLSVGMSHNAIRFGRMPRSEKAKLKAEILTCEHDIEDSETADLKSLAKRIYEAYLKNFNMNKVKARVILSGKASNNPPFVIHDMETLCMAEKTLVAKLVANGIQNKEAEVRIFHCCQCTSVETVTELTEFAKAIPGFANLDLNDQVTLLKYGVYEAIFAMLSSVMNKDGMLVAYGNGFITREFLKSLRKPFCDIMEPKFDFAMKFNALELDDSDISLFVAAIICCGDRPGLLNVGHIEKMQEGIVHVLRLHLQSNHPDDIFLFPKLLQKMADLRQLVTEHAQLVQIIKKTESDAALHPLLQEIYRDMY
The experiment in a line: Agonist activity at Gal4-tagged human PPARalpha expressed in HEK293 cells at 3 to 30 uM incubated for 16 to 20 hrs by luciferase and beta-galactosidase activity based reporter gene assay. Background: In a reporter assay the amount or activity of a reporter protein is the signal.

The target of data set [2] is T2, Peroxisome proliferator-activated receptor gamma (Homo sapiens) (UniProt P37231).
T2 sequence (whole entry): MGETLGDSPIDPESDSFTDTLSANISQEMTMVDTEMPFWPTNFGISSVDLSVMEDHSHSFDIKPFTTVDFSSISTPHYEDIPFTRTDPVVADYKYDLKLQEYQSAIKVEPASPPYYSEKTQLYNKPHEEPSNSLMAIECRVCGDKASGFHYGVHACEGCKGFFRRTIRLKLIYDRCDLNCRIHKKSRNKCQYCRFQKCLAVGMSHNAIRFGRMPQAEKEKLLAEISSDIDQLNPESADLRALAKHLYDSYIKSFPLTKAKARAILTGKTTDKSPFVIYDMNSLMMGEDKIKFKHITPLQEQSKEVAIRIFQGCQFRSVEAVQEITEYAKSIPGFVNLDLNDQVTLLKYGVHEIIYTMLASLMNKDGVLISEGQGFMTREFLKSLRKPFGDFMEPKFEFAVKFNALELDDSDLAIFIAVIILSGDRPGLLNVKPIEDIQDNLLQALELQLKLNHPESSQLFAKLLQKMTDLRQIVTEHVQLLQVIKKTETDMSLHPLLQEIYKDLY
The experiment in a line: Agonist activity at Gal4-tagged human PPARgamma expressed in HEK293 cells at 3 to 30 uM incubated for 16 to 20 hrs by luciferase and beta-galactosidase activity based reporter gene assay.

Data set [3] addresses T3, Peroxisome proliferator-activated receptor delta (Homo sapiens) (UniProt Q03181).
T3 sequence (whole entry): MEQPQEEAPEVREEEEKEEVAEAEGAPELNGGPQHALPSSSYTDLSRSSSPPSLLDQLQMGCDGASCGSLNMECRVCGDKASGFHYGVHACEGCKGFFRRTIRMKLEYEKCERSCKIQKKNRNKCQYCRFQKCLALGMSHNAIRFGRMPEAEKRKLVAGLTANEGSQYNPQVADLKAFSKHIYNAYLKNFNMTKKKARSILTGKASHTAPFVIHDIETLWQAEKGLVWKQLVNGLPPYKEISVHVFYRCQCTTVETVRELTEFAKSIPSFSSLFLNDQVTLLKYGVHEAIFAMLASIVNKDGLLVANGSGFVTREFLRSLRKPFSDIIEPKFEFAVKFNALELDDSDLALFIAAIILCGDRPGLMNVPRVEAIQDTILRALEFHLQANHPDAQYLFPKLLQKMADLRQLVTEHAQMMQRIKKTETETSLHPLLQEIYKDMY
The data set can be described thus: Agonist activity at Gal4-tagged human PPARdelta expressed in HEK293 cells at 3 to 30 uM incubated for 16 to 20 hrs by luciferase and beta-galactosidase activity based reporter gene assay.

The test system of a further data set is HEK293. The experiment in a line: Toxicity against HEK293 cells assessed as reduction in cell viability at 30 uM. The conditions noted are these: human, hek293, 30 µM.

With `CCCCCCCC[Si](CCCC)(CCCC)CCCCCCCC(=O)NCCO`, the outcome in data set [1], in data set [2] and in data set [3] was inactive.
For the compound `CCCCCCCC[Si](CCC)(CCC)CCCCCCCC(=O)NCCO`, the outcome in data set [1] and in data set [3] was Active. Moreover, in data set [2], the result was inactive.
In the case of `CCCCCCCC[Si](CC)(CC)CCCCCCCC(=O)NCCO`, the result in data set [1] and in data set [3] was Active. The result in data set [2] was inactive.
For `CCCCCCCC/C=C\CCCCCCCC(=O)NCCO`, in data set [1], the result was Active.
With `CCCCCCCC[Si](C)(C)CCCCCCCC(=O)NCCO`, the outcome in data set [1] and in data set [3] was Active. Moreover, the outcome in data set [2] was inactive.
In the case of `CCCCCCCC[Si](CC)(CC)CCCCCCC(=O)NCCO`, the result in data set [1], in data set [2] and in data set [3] was inactive.
Take `CCCCCCC[Si](CC)(CC)CCCCCCCC(=O)NCCO`: in the data set on HEK293, the Activity entry is given as “Toxic”. In addition, the outcome in data set [1] and in data set [2] was inactive. In data set [3], the outcome was Active.
In the case of `CCCCCCCCCCCCCCCCCC(=O)NCCO`, the result in data set [1] and in data set [2] was inactive.
